Patent publication US20250115591A1, “NOVEL SULFONAMIDE CARBOXAMIDE COMPOUNDS” (INFLAZOME LIMITED, priority 2017, published 2025)
Counter-ions that a name gives are not always drawn.

target: NLRP3 (Homo sapiens (Human), UniProt Q96P20); experiment: THP-1 cells pyroptosis assay (LPS + nigericin, resazurin read-out); format: cell-based; settings: 1 μg/ml LPS, 5 μM nigericin
Experimental: THP-1 cells (ATCC #TIB-202) were grown in RPMI containing L-glutamine (Gibco 15 #11835) supplemented with 1 mM sodium pyruvate (Sigma #S8636) and penicillin (100 units/ml)/streptomycin (0.1 mg/ml) (Sigma #P4333) in 10% Fetal Bovine Serum (FBS) (Sigma #F0804). The cells were routinely passaged and grown to confluency (˜10^6 cells/ml). On the day of the experiment, THP-1 cells were harvested and resuspended into RPMI medium (without FBS). The cells were then counted and viability (>90%) checked by Trypan blue (Sigma #T8154). Appropriate dilutions were made to give a concentration of 625,000 cells/ml. To this diluted cell solution was added LPS (Sigma #[4524) to give a 1 μg/ml Final Assay Concentration (FAC). 40μ of the final preparation was aliquoted into each well of a 96-well plate. The plate thus prepared was used for compound screening.
The following method step-by-step assay was followed for compound screening. • 1. Seed THP-1 cells (25,000 cells/well) containing 1.0 μg/ml LPS in 40μ of RPMI medium (without FBS) in 96-well, black walled, clear bottom cell culture plates coated with poly-D-lysine (VWR #734-0317) • 2. Add 5 μl compound (8 points half-log dilution, with […]) or vehicle (DMSO 0.1% FAC) to the appropriate wells • 3. Incubate for 3 hrs at 37° C. and 5% CO2 • 4. Add 5 μl nigericin (Sigma #N7143) (FAC 5 μM) to all wells • 5. Incubate for 1 hr at 37° C. and 5% CO2 • 6. At the end of the incubation period, spin plates at 300×g for 3 mins and remove supernatant • 7. Then add 50 μl of resazurin (Sigma #R7017) (FAC 100 μM resazurin in RPMI medium without FBS) and incubate plates for a further 1-2 hrs at 37° C. and 5% CO2 • 8. Plates were read in an Envision reader at Ex 560 nm and Em 590 nm • 9. IC50 data is fitted to a non-linear regression equation (log inhibitor vs response-variable slope 4-parameters)

Chain of NLRP3 (Q96P20 whole entry): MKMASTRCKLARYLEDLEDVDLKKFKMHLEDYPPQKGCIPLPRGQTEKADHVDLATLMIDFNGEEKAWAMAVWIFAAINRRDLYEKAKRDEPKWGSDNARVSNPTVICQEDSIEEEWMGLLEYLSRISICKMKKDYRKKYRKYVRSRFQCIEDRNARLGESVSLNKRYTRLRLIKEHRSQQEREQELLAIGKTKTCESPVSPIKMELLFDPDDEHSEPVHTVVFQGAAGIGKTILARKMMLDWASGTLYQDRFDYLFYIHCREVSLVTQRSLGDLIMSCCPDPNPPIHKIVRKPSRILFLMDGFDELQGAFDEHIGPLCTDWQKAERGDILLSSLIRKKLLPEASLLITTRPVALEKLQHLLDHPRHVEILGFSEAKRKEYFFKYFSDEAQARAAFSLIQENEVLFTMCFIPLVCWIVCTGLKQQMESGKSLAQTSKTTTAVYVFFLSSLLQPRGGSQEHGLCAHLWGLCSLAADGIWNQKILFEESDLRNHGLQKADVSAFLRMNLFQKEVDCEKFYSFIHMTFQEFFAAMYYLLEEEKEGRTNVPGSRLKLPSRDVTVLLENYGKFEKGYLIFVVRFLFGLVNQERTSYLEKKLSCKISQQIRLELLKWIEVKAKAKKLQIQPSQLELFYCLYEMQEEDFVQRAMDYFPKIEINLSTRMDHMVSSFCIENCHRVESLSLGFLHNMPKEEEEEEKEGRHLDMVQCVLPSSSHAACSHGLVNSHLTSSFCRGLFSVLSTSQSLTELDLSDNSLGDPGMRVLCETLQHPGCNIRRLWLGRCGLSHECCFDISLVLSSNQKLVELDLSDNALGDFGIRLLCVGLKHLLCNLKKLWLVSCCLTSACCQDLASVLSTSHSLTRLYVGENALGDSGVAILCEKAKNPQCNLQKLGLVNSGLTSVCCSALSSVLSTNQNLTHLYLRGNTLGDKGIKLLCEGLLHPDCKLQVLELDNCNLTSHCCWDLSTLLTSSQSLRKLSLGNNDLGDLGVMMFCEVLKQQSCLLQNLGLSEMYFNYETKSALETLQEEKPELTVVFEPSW

| SMILES | IC50 |
| --- | --- |
| CCC(=O)N1CCC(S(=O)(=O)NC(=O)Nc2c3c(cc4c2CCC4)CCC3)CC1 [Example 10, N-((1,2,3,5,6,7-Hexahydro-s-indacen-4-yl)carbamoyl)-1-propionylpiperidine-4-sulfonamide, potassium salt] | 1 to 10 µM |
| COc1cc(-c2cc(F)cc(C(C)C)c2NC(=O)NS(=O)(=O)C2CN(Cc3cccnc3)C2)ccn1 [Example 177, N-((4-Fluoro-2-isopropyl-6-(2-methoxypyridin-4-yl)phenyl)carbamoyl)-1-(pyridin-3-ylmethyl)azetidine-3-sulfonamide] | 1 to 10 µM |
| CC(C)(C)OC(=O)N1CC(S(=O)(=O)NC(=O)Nc2c3c(cc4c2CCC4)CCC3)C1 [Example 77, tert-Butyl 3-(N-((1,2,3,5,6,7-hexahydro-s-indacen-4-yl)carbamoyl)sulfamoyl)azetidine-1-carboxylate, potassium salt] | 1 to 10 µM |
| O=C(Nc1c2c(cc3c1CCC3)CCC2)NS(=O)(=O)C1CCN(C(=O)C2CCC2)CC1 [Example 25, 1-(Cyclobutanecarbonyl)-N-((1,2,3,5,6,7-hexahydro-s-indacen-4-yl)carbamoyl)piperidine-4-sulfonamide, potassium salt] | 1 to 10 µM |
| CN(C)C(=O)N1CCC(S(=O)(=O)NC(=O)Nc2c3c(cc4c2CCC4)CCC3)C1 (centres unmarked) [Example 40, 3-(N-((1,2,3,5,6,7-Hexahydro-s-indacen-4-yl)carbamoyl)sulfamoyl)-N,N-dimethylpyrrolidine-1-carboxamide] | 1 to 10 µM |
| CC1(C)CC(N2CC(S(=O)(=O)NC(=O)Nc3c4c(cc5c3CCC5)CCC4)C2)C1 [Example 119, 1-(3,3-Dimethylcyclobutyl)-N-((1,2,3,5,6,7-hexahydro-s-indacen-4-yl)carbamoyl)azetidine-3-sulfonamide, potassium salt] | 1 to 10 µM |
| CCN1CC(S(=O)(=O)NC(=O)Nc2c3c(cc4c2CCC4)CCC3)Cc2ccccc21 (centres unmarked) [Example 66, 1-Ethyl-N-((1,2,3,5,6,7-hexahydro-s-indacen-4-yl)carbamoyl)-1,2,3,4-tetrahydroquinoline-3-sulfonamide, potassium salt] | < 1 µM |
| O=C(Nc1c2c(cc3c1CCC3)CCC2)NS(=O)(=O)C1CN(C2C[S+]([O-])C2)C1 (centres unmarked) [Example 117, N-((1,2,3,5,6,7-Hexahydro-s-indacen-4-yl)carbamoyl)-1-(1-oxidothietan-3-yl)azetidine-3-sulfonamide, potassium salt] | < 1 µM |
| Cn1ccnc1CN1CC(S(=O)(=O)NC(=O)Nc2c3c(cc4c2CCC4)CCC3)C1 [Example 123, N-((1,2,3,5,6,7-Hexahydro-s-indacen-4-yl)carbamoyl)-1-((1-methyl-1H-imidazol-2-yl)methyl)azetidine-3-sulfonamide, potassium salt] | 1 to 10 µM |
| CC(=O)N1CC(N2CCC(S(=O)(=O)NC(=O)Nc3c4c(cc5c3CCC5)CCC4)CC2)C1 [Example 79, 1-(1-Acetylazetidin-3-yl)-N-((1,2,3,5,6,7-hexahydro-s-indacen-4-yl)carbamoyl)piperidine-4-sulfonamide, potassium salt] | 1 to 10 µM |
| CC(C)c1cc(F)cc(-c2cccnc2)c1NC(=O)NS(=O)(=O)C1CN(C(C)C)C1 [Example 175, N-((4-Fluoro-2-isopropyl-6-(pyridin-3-yl)phenyl)carbamoyl)-1-isopropylazetidine-3-sulfonamide] | < 1 µM |
| CC(C)C(=O)N1CCC(S(=O)(=O)NC(=O)Nc2c3c(cc4c2CCC4)CCC3)CC1 [Example 11, N-((1,2,3,5,6,7-Hexahydro-s-indacen-4-yl)carbamoyl)-1-isobutyrylpiperidine-4-sulfonamide, potassium salt] | 1 to 10 µM |
| COCC(=O)N1CCC(S(=O)(=O)NC(=O)Nc2c3c(cc4c2CCC4)CCC3)CC1 [Example 12, N-((1,2,3,5,6,7-Hexahydro-s-indacen-4-yl)carbamoyl)-1-(2-methoxyacetyl)piperidine-4-sulfonamide, potassium salt] | 1 to 10 µM |
| C/C(CN1CC(S(=O)(=O)NC(=O)Nc2c3c(cc4c2CCC4)CCC3)C1)=N/O [Example 128, N-((1,2,3,5,6,7-Hexahydro-s-indacen-4-yl)carbamoyl)-1-(2-(hydroxyimino)propyl)azetidine-3-sulfonamide, potassium salt] | 1 to 10 µM |
| CN1CC(N2CC(S(=O)(=O)NC(=O)Nc3c4c(cc5c3CCC5)CCC4)C2)C1 [Example 110, N-((1,2,3,5,6,7-Hexahydro-s-indacen-4-yl)carbamoyl)-1′-methyl-[1,3′-biazetidine]-3-sulfonamide, potassium salt] | 1 to 10 µM |
| CC(C)N1CC(N2CCC(S(=O)(=O)NC(=O)Nc3c4c(cc5c3CCC5)CCC4)CC2)C1 [Example 62, N-((1,2,3,5,6,7-Hexahydro-s-indacen-4-yl)carbamoyl)-1-(1-isopropylazetidin-3-yl)piperidine-4-sulfonamide, potassium salt] | 1 to 10 µM |
| CCN1CCC(N2CC(S(=O)(=O)NC(=O)Nc3c4c(cc5c3CCC5)CCC4)C2)CC1 [Example 73, 1-(1-Ethylpiperidin-4-yl)-N-((1,2,3,5,6,7-hexahydro-s-indacen-4-yl)carbamoyl)azetidine-3-sulfonamide, potassium salt] | 1 to 10 µM |
| CCN1CCC(N2CCC(S(=O)(=O)NC(=O)Nc3c4c(cc5c3CCC5)CCC4)C2)CC1 (centres unmarked) [Example 44, 1-(1-Ethylpiperidin-4-yl)-N-((1,2,3,5,6,7-hexahydro-s-indacen-4-yl)carbamoyl)pyrrolidine-3-sulfonamide, potassium salt] | 1 to 10 µM |
| CC(C)c1cc(F)cc(-c2ccnc(C#N)c2)c1NC(=O)NS(=O)(=O)C1CN(Cc2cccnc2)C1 [Example 169, N-((2-(2-Cyanopyridin-4-yl)-4-fluoro-6-isopropylphenyl)carbamoyl)-1-(pyridin-3-ylmethyl)azetidine-3-sulfonamide] | 1 to 10 µM |
| O=C(Nc1c2c(cc3c1CCC3)CCC2)NS(=O)(=O)C1CN(C(CF)CF)C1 [Example 86, 1-(1,3-Difluoropropan-2-yl)-N-((1,2,3,5,6,7-hexahydro-s-indacen-4-yl)carbamoyl)azetidine-3-sulfonamide, potassium salt] | 1 to 10 µM |
| CCN1CC2(CC(S(=O)(=O)NC(=O)Nc3c4c(cc5c3CCC5)CCC4)C2)C1 [Example 50, 2-Ethyl-N-((1,2,3,5,6,7-hexahydro-s-indacen-4-yl)carbamoyl)-2-azaspiro[3.3]heptane-6-sulfonamide, potassium salt] | 1 to 10 µM |
| CC(=N)N1CC(S(=O)(=O)NC(=O)Nc2c3c(cc4c2CCC4)CCC3)C1 [Example 100, N-((1,2,3,5,6,7-Hexahydro-s-indacen-4-yl)carbamoyl)-1-(1-iminoethyl)azetidine-3-sulfonamide, potassium salt] | 1 to 10 µM |
| O=C(Nc1c2c(cc3c1CCC3)CCC2)NS(=O)(=O)C1CCN(C2COC2)CC1 [Example 20, N-((1,2,3,5,6,7-Hexahydro-s-indacen-4-yl)carbamoyl)-1-(oxetan-3-yl)piperidine-4-sulfonamide, potassium salt] | 1 to 10 µM |
| CC(C)(C)[Si](C)(C)OCCN1CC(S(=O)(=O)NC(=O)Nc2c3c(cc4c2CCC4)CCC3)C1 [Example 151, 1-(2-((tert-Butyldimethylsilyl)oxy)ethyl)-N-((1,2,3,5,6,7-hexahydro-s-indacen-4-yl)carbamoyl)azetidine-3-sulfonamide, potassium salt] | < 1 µM |
| CC1CC(N2CC(S(=O)(=O)NC(=O)Nc3c4c(cc5c3CCC5)CCC4)C2)C1 (centres unmarked) [Example 118, N-((1,2,3,5,6,7-Hexahydro-s-indacen-4-yl)carbamoyl)-1-(3-methylcyclobutyl)azetidine-3-sulfonamide, potassium salt] | < 1 µM |
| CN1CC2(CC(S(=O)(=O)NC(=O)Nc3c4c(cc5c3CCC5)CCC4)C2)C1 [Example 64, N-((1,2,3,5,6,7-Hexahydro-s-indacen-4-yl)carbamoyl)-2-methyl-2-azaspiro[3.3]heptane-6-sulfonamide, potassium salt] | 1 to 10 µM |
| COC1CN(C)CC1S(=O)(=O)NC(=O)Nc1c2c(cc3c1CCC3)CCC2 (centres unmarked) [Example 149, N-((1,2,3,5,6,7-Hexahydro-s-indacen-4-yl)carbamoyl)-4-methoxy-1-methylpyrrolidine-3-sulfonamide, potassium salt] | 1 to 10 µM |
| CN1CC(N2CCC(S(=O)(=O)NC(=O)Nc3c4c(cc5c3CCC5)CCC4)CC2)C1 [Example 80, N-((1,2,3,5,6,7-Hexahydro-s-indacen-4-yl)carbamoyl)-1-(1-methylazetidin-3-yl)piperidine-4-sulfonamide, potassium salt] | 1 to 10 µM |
| CCN1CCC(N2CCC(S(=O)(=O)NC(=O)Nc3c4c(cc5c3CCC5)CCC4)CC2)CC1 [Example 48, 1′-Ethyl-N-((1,2,3,5,6,7-hexahydro-s-indacen-4-yl)carbamoyl)-[1,4′-bipiperidine]-4-sulfonamide, potassium salt] | 1 to 10 µM |
